What was measured:
Assay type in all cases: in vivo
[1] = test system: Abutilon theophrasti (ABUTH); test: Herbicidal post-emergence action (B), 1280 g/ha; settings: rated visually after about 3 weeks vs untreated controls
In short: (§1)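 Compounds formulated as wettable powder or emulsion concentrate, with 0.5% additive, sprayed at 600 l/ha onto one-leaf-stage plants grown in sandy loam for 2 to 3 weeks. Damage rated visually against untreated plants roughly 3 weeks later; 0% = like control, 100% = plants died.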

Poa annua (POAAN) [2] = test: Herbicidal post-emergence action (B), 1280 g/ha; settings: rated visually after about 3 weeks vs untreated controls
In short: as §1

[3] = test system: Amaranthus retroflexus (AMARE); test: Herbicidal post-emergence action (B), 1280 g/ha; settings: rated visually after about 3 weeks vs untreated controls
In short: as §1

[4] = test system: Echinochloa crus-galli (ECHCG); test: Herbicidal post-emergence action (B), 1280 g/ha; settings: rated visually after about 3 weeks vs untreated controls
In short: as §1

Veronica persica (VERPE) [5] = test: Herbicidal post-emergence action (B), 1280 g/ha
In short: as §1

Stellaria media (STEME) = test: Herbicidal post-emergence action (B), 1280 g/ha
In short: as §1

Setaria viridis (SETVI) [6] = test: Herbicidal post-emergence action (B), 1280 g/ha; settings: rated visually after about 3 weeks vs untreated controls
In short: as §1

[7] = test system: Alopecurus myosuroides (ALOMY); test: Herbicidal post-emergence action (B), 1280 g/ha; settings: rated visually after about 3 weeks vs untreated controls
In short: as §1

[8] = test system: Kochia scoparia (KCHSC; Bassia scoparia); test: Herbicidal post-emergence action (B), 1280 g/ha
In short: as §1

[9] = test system: Digitaria sanguinalis (DIGSA); test: Herbicidal post-emergence action (B), 1280 g/ha; settings: rated visually after about 3 weeks vs untreated controls
In short: as §1

[10] = test system: Digitaria sanguinalis (DIGSA); test: Herbicidal pre-emergence action (C), 320 g/ha; settings: ca. 3 weeks
In short: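 Weed and crop seeds sown in sandy loam; WP or EC formulations applied pre-emergence to the soil surface as aqueous suspension/emulsion with 0.5% additive at 600 l water/ha. Greenhouse-grown under optimum conditions; damage visually scored after ca. 3 weeks versus untreated controls (0% = as control, 100% = plants dead).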

Lolium rigidum (LOLRI) = test: Herbicidal pre-emergence action (C), 320 g/ha; settings: ca. 3 weeks
In short: (§2)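 Seeds sown in sandy loam; WP or EC formulations sprayed on covering soil pre-emergence at 320 g/ha in 600 l water/ha with 0.5% additive. Greenhouse culture; damage scored visually after ca. 3 weeks versus untreated controls (0% = as control, 100% = plants dead).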

[11] = test system: Amaranthus retroflexus (AMARE); test: Herbicidal pre-emergence action (C), 320 g/ha; settings: ca. 3 weeks
In short: as §2

[12] = test system: Echinochloa crus-galli (ECHCG); test: Herbicidal pre-emergence action (C), 320 g/ha; settings: ca. 3 weeks
In short: as §2

Veronica persica (VERPE) [13] = test: Herbicidal pre-emergence action (C), 320 g/ha; settings: ca. 3 weeks
In short: as §2

Setaria viridis (SETVI) [14] = test: Herbicidal pre-emergence action (C), 320 g/ha; settings: ca. 3 weeks
In short: as §2

[15] = test system: Alopecurus myosuroides (ALOMY); test: Herbicidal pre-emergence action (C), 320 g/ha; settings: ca. 3 weeks
In short: as §2

[16] = test system: Abutilon theophrasti (ABUTH); test: Herbicidal pre-emergence action (A), 1280 g/ha; settings: visual grading after ca. 3 weeks vs untreated controls, 100% = plants have died off, 0% = as control plants
In short: (§3)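 Visual percent damage scored about 3 weeks after treatment relative to untreated pots (100% = complete kill, 0% = no effect). Compounds, as wettable powder or emulsifiable concentrate plus 0.5% additive in 600 l water/ha, were applied to the soil surface over freshly sown seeds in sandy loam, greenhouse-grown.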

Poa annua (POAAN) [17] = test: Herbicidal pre-emergence action (A), 1280 g/ha; settings: visual grading after ca. 3 weeks vs untreated controls, 100% = plants have died off, 0% = as control plants
In short: as §3

[18] = test system: Amaranthus retroflexus (AMARE); test: Herbicidal pre-emergence action (A), 1280 g/ha; settings: visual grading after ca. 3 weeks vs untreated controls
In short: as §3

[19] = test system: Echinochloa crus-galli (ECHCG); test: Herbicidal pre-emergence action (A), 1280 g/ha; settings: visual grading after ca. 3 weeks vs untreated controls, 100% = plants have died off, 0% = as control plants
In short: as §3

Veronica persica (VERPE) [20] = test: Herbicidal pre-emergence action (A), 1280 g/ha; settings: visual grading after ca. 3 weeks vs untreated controls
In short: as §3

Setaria viridis (SETVI) [21] = test: Herbicidal pre-emergence action (A), 1280 g/ha; settings: visual grading after ca. 3 weeks vs untreated controls
In short: as §3

[22] = test system: Digitaria sanguinalis (DIGSA); test: Herbicidal pre-emergence action (A), 1280 g/ha; settings: visual grading after ca. 3 weeks vs untreated controls, 100% = plants have died off, 0% = as control plants
In short: as §3

SMILES | herbicidal activity POAAN (Poa annua (POAAN) [2]) [%] | herbicidal activity AMARE [3] [%] | herbicidal activity ECHCG [4] [%] | herbicidal effect VERPE (Veronica persica (VERPE) [5]) [%] | herbicidal effect STEME (Stellaria media (STEME)) [%] | herbicidal activity SETVI (Setaria viridis (SETVI) [6]) [%] | herbicidal activity ALOMY [7] [%] | herbicidal effect KCHSC [8] [%] | herbicidal activity DIGSA [9] [%] | herbicidal effect LOLRI (Lolium rigidum (LOLRI)) [%] | herbicidal effect AMARE [11] [%] | herbicidal effect ECHCG [12] [%] | herbicidal effect VERPE (Veronica persica (VERPE) [13]) [%] | herbicidal effect SETVI (Setaria viridis (SETVI) [14]) [%] | herbicidal effect ALOMY [15] [%] | POAAN, herbicidal effect in percent (%) (Poa annua (POAAN) [17]) | herbicidal effect AMARE [18] [%] | ECHCG, herbicidal effect in percent (%) [19] [%] | herbicidal effect VERPE (Veronica persica (VERPE) [20]) [%] | herbicidal effect SETVI (Setaria viridis (SETVI) [21]) [%] | also measured
CCc1cc2scnc2nc1-c1cccc(F)c1 [Example I-029] | 100 | 100 | 100 | 90 | 100 | 100 | 100 | 100 | 100 | 100 | 90 | 100 | 90 | 100 | 100 | 100 | 100 | 100 | 90 | 100 | herbicidal activity ABUTH [1]: 100%; herbicidal effect DIGSA [10]: 100%; ABUTH, herbicidal effect in percent (%) [16]: 90%; DIGSA, herbicidal effect in percent (%) [22]: 100%
Fc1ccccc1-c1nc2ncsc2cc1C1CC1 [Example I-102] | 90 | 100 | 100 | 100 | 100 | 100 | 100 | 100 | 100 | 100 | 90 | 100 | 80 | 100 | 90 | 100 | 90 | 100 | 100 | 100 | ABUTH, herbicidal effect in percent (%) [16]: 90%; DIGSA, herbicidal effect in percent (%) [22]: 100%
Cc1cc2scnc2nc1-c1ccc(F)cc1F [Example I-122] | 100 | 100 | 90 | 100 | 100 | 90 | 100 | 100 | 100 | 100 | 90 | 100 | 90 | 100 | 100 | 100 | 100 | 100 | 100 | 100 | herbicidal activity ABUTH [1]: 90%; herbicidal effect DIGSA [10]: 100%; ABUTH, herbicidal effect in percent (%) [16]: 100%; DIGSA, herbicidal effect in percent (%) [22]: 100%
Cc1cc2scnc2nc1-c1cccc(F)c1 [Example I-003, 5-(3-fluorophenyl)-6-methyl-thiazolo[4,5-b]pyridine] | 100 | 100 | 100 | 90 | 100 | 90 | 100 | 90 | 90 | 100 | 80 | 100 | 90 | 100 | 100 | 100 | 90 | 100 | 90 | 100 | herbicidal effect DIGSA [10]: 100%; DIGSA, herbicidal effect in percent (%) [22]: 100%

Reference: patent publication US20230151025A1, “SUBSTITUTED THIAZOLOPYRIDINES, SALTS THEREOF AND THEIR USE AS HERBICIDALLY ACTIVE SUBSTANCES” (Bayer Aktiengesellschaft, priority 2020, published 2023)
